Laboratory results taken from patent US20140023611A1 (priority 2010, published 2014).
Marks after values point to notes of the source that are not given here.

Columns and labels:
NaPi2b = assay: Competition with phosphate: Pi uptake assay repeated at 2.1 vs 0.1 mM phosphate; assay type: cell-based; settings: potency at 2.1 vs 0.1 mM phosphate
Outline: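 Phosphate uptake assay with compound, performed at 0.1 mM phosphate and repeated at 2.1 mM phosphate, with IC50 values determined at each phosphate concentration to assess competition with phosphate.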

rat NaP2b (SLC34A2) = target: T1, rat NaP2b (SLC34A2) (Rattus norvegicus, UniProt Q9JJ09); assay: NaP2b-mediated Pi transport (33P uptake) in transfected HEK293 cells, rat NaP2b; assay type: cell-based; settings: Structure (V) examples, Table 2; rat NaP2b, HEK293; read-out: pIC50 Range (converted)
T1 construct: host or cells: HEK293
T1 sequence (Q9JJ09 1-695): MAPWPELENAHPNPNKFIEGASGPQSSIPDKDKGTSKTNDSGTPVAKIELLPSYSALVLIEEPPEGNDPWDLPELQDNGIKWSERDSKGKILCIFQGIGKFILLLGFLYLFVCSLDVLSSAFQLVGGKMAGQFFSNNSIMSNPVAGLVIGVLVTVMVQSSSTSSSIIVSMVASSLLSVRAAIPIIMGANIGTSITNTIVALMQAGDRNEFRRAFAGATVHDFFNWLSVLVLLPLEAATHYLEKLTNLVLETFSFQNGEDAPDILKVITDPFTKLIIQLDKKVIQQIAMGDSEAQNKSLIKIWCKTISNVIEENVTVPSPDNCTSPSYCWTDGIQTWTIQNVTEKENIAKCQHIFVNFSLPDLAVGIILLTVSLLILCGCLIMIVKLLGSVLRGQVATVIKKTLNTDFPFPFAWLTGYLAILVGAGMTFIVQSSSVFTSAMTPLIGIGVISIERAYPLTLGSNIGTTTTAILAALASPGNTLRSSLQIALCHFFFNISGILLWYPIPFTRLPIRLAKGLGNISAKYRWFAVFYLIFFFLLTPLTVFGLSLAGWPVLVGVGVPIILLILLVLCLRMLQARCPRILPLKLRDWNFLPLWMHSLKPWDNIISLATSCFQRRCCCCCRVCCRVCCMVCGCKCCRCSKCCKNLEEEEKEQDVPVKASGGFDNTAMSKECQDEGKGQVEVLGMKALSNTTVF
Outline: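 HEK293 cells transiently transfected with NaP2b cDNA, endogenous PiT transport suppressed; ^33P-phosphate uptake measured in sodium vs choline buffer (100 uM KH2PO4, pH 7.4) for 3–30 min at room temperature. Twelve concentrations, 0.1 nM–30 uM, in duplicate; uptake by scintillation counting, pIC50 calculated.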

[1] = test system: 5/6 nephrectomy (5/6Nx) rat model of CKD; assay: In vivo evaluation procedure: CKD rats, drug in chow; settings: for FGF23 (serum FGF23 levels): ELISA
Procedure: To assess the ability of selected example compounds to impact the progression of chronic kidney disease (CKD), 5/6 nephrectomy (5/6Nx) rat model of CKD was used. […] Upon arrival, the surgeries and extent of kidney damage in the animals were assessed by measuring serum creatinine, P, Ca, and BUN. Based on this analysis, rats with inconsistent kidney function were removed from the study and the remainder of the cohort was divided in to evenly stratified test groups. The remaining animals were then placed on the same synthetic diet used in the drug-in-chow studies (Example 350), except the P levels were adjusted to 0.9% P. Drugs are blended into this chow to achieve the required dosing rate. At this time, rats were also started on an activated Vitamin D regimen in which they were injected intraperitoneally with calcitriol at 80 ng/kg three times a week. Once a week, serum was collected via retro orbital bleeding for analysis of serum P and creatinine utilizing an ACE ALERA blood chemistry analyzer. […] Unless otherwise indicated, the data shown is from the serum collected at 2 weeks after initiation of the treatment regimen. In addition, for study #3, during the third week of the study, the animals were placed in metabolic cages for two days, and urine collected for the final 24 hours.

[2] = Study 3, 5/6Nx rats, data at 3 weeks

## O=C(O)c1cccc(SCc2cccc(C(=O)Nc3ccc(N4CCCCC4)cc3-c3cc(C(=O)NCc4cccc(C(F)(F)F)c4)ccn3)c2)c1 [Example 8.1, 3-(3-(4-(piperidin-1-yl)-2-(4-(3-(trifluoromethyl)benzylcarbamoyl)pyridin-2-yl)phenylcarbamoyl)benzylthio)benzoic acid]
NaPi2b
  Competitive with respect to Pi?: No

## O=C(NCCN1CCOCC1)c1cccc(C(=O)Nc2ccc(N3CCCCC3)cc2C(=O)N/N=C/c2ccc(Cl)c(C(F)(F)F)c2)c1 [Ex. 53, (E)-N^1-(2-(2-(4-chloro-3-(trifluoromethyl)benzylidene)hydrazinecarbonyl)-4-(piperidin-1-yl)phenyl)-N3-(2-morpholinoethyl)isophthalamide]
Rat NaP2b (SLC34A2)
  IC50: 100 to 794 nM

## CCN(CC)c1ccc(NC(=O)c2cccc(CSCCOCCOCCOCCOCCOCCOCCOCCOCCC(=O)O)c2)c(-c2cc(C(=O)NCc3cccc(C(F)(F)F)c3)ccn2)c1 [Example 166, 1-(3-(4-(diethylamino)-2-(4-(3-(trifluoromethyl)benzylcarbamoyl)pyridin-2-yl)phenylcarbamoyl)phenyl)-5,8,11,14,17,20,23,26-octaoxa-2-thianonacosan-29-oic acid]
[1]; Study 2, 5/6Nx rats, 0.9% P diet + calcitriol, 2 weeks
  Ser P (serum P): 11 mg/dL
[1]; Study 2, 5/6Nx rats, 2 weeks
  Ser CRE (serum creatinine): 1.2 mg/dL
  FGF23 (serum FGF23 levels): 100000 pg/mL
[1]; [2]
  Ser CRE (serum creatinine): 1.0^§ mg/dL
  Ser P (serum P): 10^§ mg/dL
[1]; Study 3, 5/6Nx rats, data at 4 weeks
  FGF23 (serum FGF23 levels): 1.2 × 10^5§§ pg/mL

## CN(CCN1CCOCC1)C(=O)c1cccc(C(=O)Nc2ccc(N3CCCCC3)cc2-c2cc(C(=O)NCc3cccc(C(F)(F)F)c3)ccn2)c1 [Example 80, N1-Methyl-N1-(2-morpholinoethyl)-N3-(4-(piperidin-1-yl)-2-(4-((3-(trifluoromethyl)benzyl)carbamoyl)pyridin-2-yl)phenyl)isophthalamide]
NaPi2b
  Competitive with respect to Pi?: No

## CCN(CC)c1ccc(NC(=O)c2cccc(CCCOCCOCCOCCOCCOCCOCCOCCOCCOC)c2)c(-c2cc(C(=O)N[C@H]3CCCc4ccccc43)ccn2)c1 [Example 261, (S)-2-(2-(3-(2,5,8,11,14,17,20,23,26-nonaoxanonacosan-29-yl)benzamido)-5-(diethylamino)phenyl)-N-(1,2,3,4-tetrahydronaphthalen-1-yl)isonicotinamide]
[1]; Study 1, 5/6Nx rats, 0.9% P diet + calcitriol, 2 weeks
  Ser P (serum P): 9.7 mg/dL
[1]; Study 1, 5/6Nx rats, 2 weeks
  Ser CRE (serum creatinine): 1.0 mg/dL
  FGF23 (serum FGF23 levels): >15,000 pg/mL

## COCCNC(=O)CCSCc1cccc(C(=O)Nc2ccc(N3CCCCC3)cc2C(=O)N/N=C/c2ccc(Cl)c(C(F)(F)F)c2)c1 [Ex. 49, (E)-N-(2-(2-(4-chloro-3-(trifluoromethyl)benzylidene)hydrazinecarbonyl)-4-(piperidin-1-yl)phenyl)-3-((3-(2-methoxyethylamino)-3-oxopropylthio)methyl)benzamide]
Rat NaP2b (SLC34A2)
  IC50: 100 to 794 nM
